# System: MV-4-11 cells
# Test: Gene expression microarray analysis (Affymetrix PrimeView) and GSEA
# Type: cell-based, human
# Set-up: RFU PODN (11730768_x_at) / Fold change /veh PODN (11730768_x_at) / RFU LINC00158 (11744669_a_at) / Fold change /veh LINC00158 (11744669_a_at) / RFU DUSP10 (11751237_a_at) / Fold change /veh DUSP10 (11751237_a_at) / RFU ID3 (11757404_x_at) / Fold change /veh ID3 (11757404_x_at) / RFU PLEKHG5 (11737974_s_at) / Fold change /veh PLEKHG5 (11737974_s_at) / RFU LRRC4B (11730491_at) / Fold change /veh LRRC4B (11730491_at) / RFU GIMAP4 (11747438_a_at) / Fold change /veh GIMAP4 (11747438_a_at) / RFU KRT8 (11758183_x_at) / Fold change /veh KRT8 (11758183_x_at) / RFU CNN1 (11734310_a_at) / Fold change /veh CNN1 (11734310_a_at) / RFU VPS37D (11726825_at) / Fold change /veh VPS37D (11726825_at) / RFU C10orf10 (11716522_x_at) / Fold change /veh C10orf10 (11716522_x_at) / RFU KIR2DL2 /// KIR2DL4 /// KIR2DL5A /// KIR2DL5B /// KIR2DS1 /// KIR2DS2 /// KIR2DS3 /// KIR2DS4 /// KIR3DL3 /// KIR3DL3 /// KIR3DS1 (11738374_at) / Fold change /veh KIR2DL2 /// KIR2DL4 /// KIR2DL5A /// KIR2DL5B /// KIR2DS1 /// KIR2DS2 /// KIR2DS3 /// KIR2DS4 /// KIR3DL3 /// KIR3DL3 /// KIR3DS1 (11738374_at) / RFU C1QL1 (11718748_at) / Fold change /veh C1QL1 (11718748_at) / RFU TMPRSS4 (11747572_a_at) / Fold change /veh TMPRSS4 (11747572_a_at) / RFU HAMP (11756126_x_at) / Fold change /veh HAMP (11756126_x_at) / RFU RNFT2 (11725882_a_at) / Fold change /veh RNFT2 (11725882_a_at) / RFU NR4A2 (11747474_a_at) / Fold change /veh NR4A2 (11747474_a_at) / RFU ABCC12 (11746883_a_at) / Fold change /veh ABCC12 (11746883_a_at) / RFU TMEM136 (11760407_x_at) / Fold change /veh TMEM136 (11760407_x_at) / RFU CLDN22 /// WWC2 (11732394_at) / Fold change /veh CLDN22 /// WWC2 (11732394_at) / RFU HLA-DPB1 (11760878_x_at) / Fold change /veh HLA-DPB1 (11760878_x_at) / RFU SPINT1 (11716480_a_at) / Fold change /veh SPINT1 (11716480_a_at) / RFU GAP43 (11754022_s_at) / Fold change /veh GAP43 (11754022_s_at) / RFU A4GNT (11735810_at) / Fold change /veh A4GNT (11735810_at) / RFU PRB3 (11715151_x_at) / Fold change /veh PRB3 (11715151_x_at) / RFU TUBB4B (11761932_at) / Fold change /veh TUBB4B (11761932_at) / RFU CAPN14 (11732068_a_at) / Fold change /veh CAPN14 (11732068_a_at) / RFU TMCC2 (11721928_a_at) / Fold change /veh TMCC2 (11721928_a_at) / RFU IRGQ (11745062_a_at) / Fold change /veh IRGQ (11745062_a_at) / RFU FAM174B (11720279_a_at) / Fold change /veh FAM174B (11720279_a_at) / RFU TMPRSS4 (11748680_a_at) / Fold change /veh TMPRSS4 (11748680_a_at) / RFU FAM212B (11763350_a_at) / Fold change /veh FAM212B (11763350_a_at) / RFU PLEKHG5 (11743358_a_at) / Fold change /veh PLEKHG5 (11743358_a_at) / RFU ZSCAN30 (11745921_a_at) / Fold change /veh ZSCAN30 (11745921_a_at) / RFU CMKLR1 (11741424_a_at) / Fold change /veh CMKLR1 (11741424_a_at) / RFU LOC101060620 /// MAPK8IP1 (11723275_at) / Fold change /veh LOC101060620 /// MAPK8IP1 (11723275_at) / RFU SPTSSB (11747773_x_at) / Fold change /veh SPTSSB (11747773_x_at) / RFU PRSS12 (11739890_at) / Fold change /veh PRSS12 (11739890_at) / RFU BIN1 (11741810_x_at) / Fold change /veh BIN1 (11741810_x_at) / RFU WNT11 (11732464_a_at) / Fold change /veh WNT11 (11732464_a_at) / RFU C10orf10 (11716521_a_at) / Fold change /veh C10orf10 (11716521_a_at) / RFU C5orf56 (11738089_at) / Fold change /veh C5orf56 (11738089_at) / RFU CYB561 (11721691_x_at) / Fold change /veh CYB561 (11721691_x_at) / RFU ANKRD19P (11752326_a_at) / Fold change /veh ANKRD19P (11752326_a_at) / RFU OR2T12 /// OR2T33 /// OR2T8 (11738714_s_at) / Fold change /veh OR2T12 /// OR2T33 /// OR2T8 (11738714_s_at) / RFU VCAN (11748164_a_at) / Fold change /veh VCAN (11748164_a_at) / RFU JSRP1 (11732532_at) / Fold change /veh JSRP1 (11732532_at) / RFU KRTAP10-11 (11738290_x_at) / Fold change /veh KRTAP10-11 (11738290_x_at) / RFU MYO3A (11730013_a_at) / Fold change /veh MYO3A (11730013_a_at) / RFU EBF3 (11725865_a_at) / Fold change /veh EBF3 (11725865_a_at) / RFU CAMK2N1 (11719241_x_at) / Fold change /veh CAMK2N1 (11719241_x_at) / RFU C5orf56 (11738088_a_at) / Fold change /veh C5orf56 (11738088_a_at) / RFU OLFML3 (11715873_a_at) / Fold change /veh OLFML3 (11715873_a_at) / RFU LOC100653217 /// NTM (11731650_a_at) / Fold change /veh LOC100653217 /// NTM (11731650_a_at) / RFU MAPK11 (11762145_a_at) / Fold change /veh MAPK11 (11762145_a_at) / RFU FIZ1 (11724087_x_at) / Fold change /veh FIZ1 (11724087_x_at) / RFU OASL (11726364_x_at) / Fold change /veh OASL (11726364_x_at) / RFU SOX15 (11748057_x_at) / Fold change /veh SOX15 (11748057_x_at) / RFU CD79A (11719716_a_at) / Fold change /veh CD79A (11719716_a_at) / RFU HIST1H1D (11736915_at) / Fold change /veh HIST1H1D (11736915_at) / RFU CASKIN2 (11723855_a_at) / Fold change /veh CASKIN2 (11723855_a_at) / RFU LOC730098 (11760151_x_at) / Fold change /veh LOC730098 (11760151_x_at) / RFU OR4N2 (11742367_at) / Fold change /veh OR4N2 (11742367_at) / RFU PRRT2 (11749266_a_at) / Fold change /veh PRRT2 (11749266_a_at) / RFU SNX32 (11753110_a_at) / Fold change /veh SNX32 (11753110_a_at) / RFU CDHR5 (11726645_a_at) / Fold change /veh CDHR5 (11726645_a_at) / RFU RCAN1 (11760418_a_at) / Fold change /veh RCAN1 (11760418_a_at) / RFU FAM167A (11723789_a_at) / Fold change /veh FAM167A (11723789_a_at) / RFU FAM26E (11764081_at) / Fold change /veh FAM26E (11764081_at) / RFU ISYNA1 (11749810_s_at) / Fold change /veh ISYNA1 (11749810_s_at) / RFU ACY1 (11761880_at) / Fold change /veh ACY1 (11761880_at) / RFU 11764098_at / Fold change /veh 11764098_at / RFU SAMD14 (11745864_x_at) / Fold change /veh SAMD14 (11745864_x_at) / RFU NPB (11741838_a_at) / Fold change /veh NPB (11741838_a_at) / RFU TMPRSS6 (11731388_a_at) / Fold change /veh TMPRSS6 (11731388_a_at) / RFU KRTAP10-2 (11738614_at) / Fold change /veh KRTAP10-2 (11738614_at) / RFU ARHGAP8 /// PRR5-ARHGAP8 (11727945_x_at) / Fold change /veh ARHGAP8 /// PRR5-ARHGAP8 (11727945_x_at) / RFU KRTAP5-7 /// NADSYN1 (11734609_at) / Fold change /veh KRTAP5-7 /// NADSYN1 (11734609_at) / RFU RASL12 (11751679_a_at) / Fold change /veh RASL12 (11751679_a_at) / RFU CDKN2B (11736163_a_at) / Fold change /veh CDKN2B (11736163_a_at) / RFU PRF1 (11729649_at) / Fold change /veh PRF1 (11729649_at) / RFU, ZNF638 /// ZNF638-IT1 / Fold change vs veh, ZNF638 /// ZNF638-IT1 / RFU, PANK3 / Fold change vs veh, PANK3 / RFU, SH3YL1 / Fold change vs veh, SH3YL1 / RFU, ZEB2 / Fold change vs veh, ZEB2 / RFU, NRIP1 / Fold change vs veh, NRIP1 / RFU, PTTG1IP / Fold change vs veh, PTTG1IP / RFU, CAPN2 / Fold change vs veh, CAPN2 / RFU, MED14 / Fold change vs veh, MED14 / RFU, SNORA58 / Fold change vs veh, SNORA58 / RFU, C1orf63 / Fold change vs veh, C1orf63 / RFU, LRRFIP1 / Fold change vs veh, LRRFIP1 / RFU, NDUFAF7 / Fold change vs veh, NDUFAF7 / RFU, SLC12A2 / Fold change vs veh, SLC12A2 / RFU, IBTK / Fold change vs veh, IBTK / RFU, ESF1 / Fold change vs veh, ESF1 / Fold change vs veh, TMEM50B / RFU, TAOK1 / Fold change vs veh, TAOK1 / RFU, ACBD3 / Fold change vs veh, ACBD3 / RFU, TMA16 / Fold change vs veh, TMA16 / RFU, RWDD3 / Fold change vs veh, RWDD3 / RFU, BCAT1 / Fold change vs veh, BCAT1 / RFU, EDEM3 / Fold change vs veh, EDEM3 / RFU, TMEM33 / Fold change vs veh, TMEM33 / RFU, WDR75 / Fold change vs veh, WDR75 / RFU, AHCTF1 / Fold change vs veh, AHCTF1 / RFU, TFRC / Fold change vs veh, TFRC / RFU, ZDHHC17 / Fold change vs veh, ZDHHC17 / RFU, NOM1 / Fold change vs veh, NOM1 / RFU, ARL8B / Fold change vs veh, ARL8B / RFU, ZBTB11 / Fold change vs veh, ZBTB11 / RFU, TAMM41 / Fold change vs veh, TAMM41 / RFU, KIAA1704 /// LOC100996395 / Fold change vs veh, KIAA1704 /// LOC100996395 / RFU, ING1 / Fold change vs veh, ING1 / RFU, TRMT61B / Fold change vs veh, TRMT61B / RFU, FUBP3 / Fold change vs veh, FUBP3 / RFU, TP53 / Fold change vs veh, TP53 / RFU, TNKS2 / Fold change vs veh, TNKS2 / RFU, ZFP14 / Fold change vs veh, ZFP14 / RFU, ACTR2 / Fold change vs veh, ACTR2 / RFU, PPP3R1 / Fold change vs veh, PPP3R1 / RFU, PIK3R1 / Fold change vs veh, PIK3R1 / RFU, HNRNPA1 / Fold change vs veh, HNRNPA1 / RFU, RNF170 / Fold change vs veh, RNF170 / RFU, ZNF28 / Fold change vs veh, ZNF28 / RFU, RNGTT / Fold change vs veh, RNGTT / RFU, OGT / Fold change vs veh, OGT / RFU, BRD1 / Fold change vs veh, BRD1 / RFU, MARS / Fold change vs veh, MARS / RFU, ZNF655 / Fold change vs veh, ZNF655 / RFU, FAHD1 / Fold change vs veh, FAHD1 / RFU, BDP1 / Fold change vs veh, BDP1 / RFU, LRRCC1 / Fold change vs veh, LRRCC1 / RFU, ARID1A / Fold change vs veh, ARID1A / RFU, ZNF146 / Fold change vs veh, ZNF146 / RFU, ZNF330 / Fold change vs veh, ZNF330 / RFU, GPN3 / Fold change vs veh, GPN3 / RFU, C9orf123 / Fold change vs veh, C9orf123 / RFU, N4BP2L2 / Fold change vs veh, N4BP2L2 / RFU, ARFIP1 / Fold change vs veh, ARFIP1 / RFU, FAM179B / Fold change vs veh, FAM179B / RFU, BCL10 / Fold change vs veh, BCL10 / RFU, UHRF1BP1L / Fold change vs veh, UHRF1BP1L / RFU, BET1 / Fold change vs veh, BET1 / RFU, CNOT2 / Fold change vs veh, CNOT2 / RFU, ZNF268 / Fold change vs veh, ZNF268 / Fold change vs veh, ZNF507 / RFU, DGCR2 / Fold change vs veh, DGCR2 / RFU, WDSUB1 / Fold change vs veh, WDSUB1 / Fold change vs veh, HSP90B1 /// MIR3652 / RFU, ADSS / Fold change vs veh, ADSS / RFU, GK / Fold change vs veh, GK / RFU, ZNF148 / Fold change vs veh, ZNF148 / RFU, TAF9 / Fold change vs veh, TAF9 / RFU, SLC1A5 / Fold change vs veh, SLC1A5 / RFU, SLMO2 / Fold change vs veh, SLMO2 / RFU, ABCC4 / Fold change vs veh, ABCC4 / RFU, LOC101060439 /// RAP1B / Fold change vs veh, LOC101060439 /// RAP1B / RFU, RFX7 / Fold change vs veh, RFX7 / RFU, GTPBP10 / Fold change vs veh, GTPBP10 / RFU, CNEP1R1 / Fold change vs veh, CNEP1R1 / RFU, BIVM-ERCC5 /// ERCC5 / Fold change vs veh, BIVM-ERCC5 /// ERCC5 / RFU, ILF3 / Fold change vs veh, ILF3 / RFU 11762660_at / Fold change /veh 11762660_at / RFU VCAN (11757783_s_at) / Fold change /veh VCAN (11757783_s_at) / RFU DDX43 (11728927_at) / Fold change /veh DDX43 (11728927_at) / RFU KRT8 (11758188_x_at) / Fold change /veh KRT8 (11758188_x_at) / RFU NKD1 (11759106_at) / Fold change /veh NKD1 (11759106_at) / RFU SRD5A1 (11742802_a_at) / Fold change /veh SRD5A1 (11742802_a_at) / RFU TPSAB1 /// TPSB2 (11721975_s_at) / Fold change /veh TPSAB1 /// TPSB2 (11721975_s_at) / RFU GSTM3 (11746129_a_at) / Fold change /veh GSTM3 (11746129_a_at) / RFU IL23R (11737362_x_at) / Fold change /veh IL23R (11737362_x_at) / RFU TMEM51 (11727254_a_at) / Fold change /veh TMEM51 (11727254_a_at) / RFU PIWIL2 (11732686_x_at) / Fold change /veh PIWIL2 (11732686_x_at) / RFU ORM1 (11744905_x_at) / Fold change /veh ORM1 (11744905_x_at) / RFU CCDC152 (11743942_at) / Fold change /veh CCDC152 (11743942_at) / RFU ECM1 (11717891_a_at) / Fold change /veh ECM1 (11717891_a_at) / RFU IL23R (11748794_a_at) / Fold change /veh IL23R (11748794_a_at) / RFU TNFAIP8L3 (11732012_x_at) / Fold change /veh TNFAIP8L3 (11732012_x_at) / RFU MBOAT4 (11741988_at) / Fold change /veh MBOAT4 (11741988_at) / RFU 11764193_at / Fold change /veh 11764193_at / RFU TMEM53 (11763286_at) / Fold change /veh TMEM53 (11763286_at) / RFU MAGEB2 (11727129_at) / Fold change /veh MAGEB2 (11727129_at) / RFU TMEM200A (11744735_a_at) / Fold change /veh TMEM200A (11744735_a_at) / RFU CCDC152 (11751479_a_at) / Fold change /veh CCDC152 (11751479_a_at) / RFU FAM211A (11726209_a_at) / Fold change /veh FAM211A (11726209_a_at) / RFU RGS16 (11746705_a_at) / Fold change /veh RGS16 (11746705_a_at) / RFU VCAN (11755009_s_at) / Fold change /veh VCAN (11755009_s_at) / RFU RHOB (11743442_s_at) / Fold change /veh RHOB (11743442_s_at) / RFU RGS16 (11720943_a_at) / Fold change /veh RGS16 (11720943_a_at) / RFU RGS16 (11720944_at) / Fold change /veh RGS16 (11720944_at) / RFU, VPS4B / Fold change vs veh, VPS4B / RFU, CREB1 / Fold change vs veh, CREB1 / RFU, DNAJC13 / Fold change vs veh, DNAJC13 / RFU, GNAQ / Fold change vs veh, GNAQ / RFU, CDK5R1 / Fold change vs veh, CDK5R1 / RFU, ZRANB3 / Fold change vs veh, ZRANB3 / RFU, CUL4A / Fold change vs veh, CUL4A / RFU, CCNY / Fold change vs veh, CCNY / RFU, UFL1 / Fold change vs veh, UFL1 / RFU, COG3 / Fold change vs veh, COG3 / RFU, DIAPH2 / Fold change vs veh, DIAPH2 / RFU, SKA2 / Fold change vs veh, SKA2 / RFU, AFF3 / Fold change vs veh, AFF3 / RFU, LMF1 / Fold change vs veh, LMF1 / RFU, IPO11 / Fold change vs veh, IPO11 / RFU, DFFB / Fold change vs veh, DFFB / RFU, FOXP1 / Fold change vs veh, FOXP1 / RFU, CARD8 / Fold change vs veh, CARD8 / RFU, STRN3 / Fold change vs veh, STRN3 / RFU, ADK / Fold change vs veh, ADK / RFU, RASSF2 / Fold change vs veh, RASSF2 / RFU, WIPF1 / Fold change vs veh, WIPF1 / RFU, LARP1B / Fold change vs veh, LARP1B / RFU, RASA1 / Fold change vs veh, RASA1 / RFU, RB1 / Fold change vs veh, RB1 / RFU, PPFIA1 / Fold change vs veh, PPFIA1 / RFU, MAT2A / Fold change vs veh, MAT2A / RFU, CCT5 / Fold change vs veh, CCT5 / RFU, WDR92 / Fold change vs veh, WDR92 / RFU, CUX1 / Fold change vs veh, CUX1 / RFU, TTC7A / Fold change vs veh, TTC7A / RFU, TMEM135 / Fold change vs veh, TMEM135 / RFU, DEPTOR / Fold change vs veh, DEPTOR / RFU, CPM / Fold change vs veh, CPM / RFU, DNAJB6 / Fold change vs veh, DNAJB6 / RFU, CACNA2D3 / Fold change vs veh, CACNA2D3 / RFU, DTX4 / Fold change vs veh, DTX4 / RFU, TFCP2 / Fold change vs veh, TFCP2 / RFU, GMCL1 /// GMCL1P1 / Fold change vs veh, GMCL1 /// GMCL1P1 / RFU, AEBP2 / Fold change vs veh, AEBP2 / RFU, SNHG1 /// SNORD22 /// SNORD25 /// SNORD26 /// SNORD27 /// SNORD28 /// SNORD29 /// SNORD31 / Fold change vs veh, SNHG1 /// SNORD22 /// SNORD25 /// SNORD26 /// SNORD27 /// SNORD28 /// SNORD29 /// SNORD31 / Fold change (Aza/veh), C12orf56 (ProbeSet 11735607_a_at) / Fold change (ACY-1035/veh), C12orf56 (ProbeSet 11735607_a_at) / Fold change (Aza/veh), FGFR1OP (ProbeSet 11751329_s_at) / Fold change (ACY-1035/veh), FGFR1OP (ProbeSet 11751329_s_at) / Fold change (Aza/veh), VPS36 (ProbeSet 11739960_a_at) / Fold change (ACY-1035/veh), VPS36 (ProbeSet 11739960_a_at) / RFU SYPL1 (11715823_x_at) / Fold change /veh SYPL1 (11715823_x_at) / RFU IGFBP7 (11715501_s_at) / Fold change /veh IGFBP7 (11715501_s_at) / RFU REEP3 (11722064_at) / Fold change /veh REEP3 (11722064_at) / RFU IGLL1 (11728026_x_at) / Fold change /veh IGLL1 (11728026_x_at): dose or concentration left out as unconfirmed
# Settings: MV-4-11 cells, 48 hours
compound,measurement,value
Nc1ccc(-c2cccs2)cc1NC(=O)c1ccc2c(c1)cc(C1CC1)n2CCN1CCOCC1 [ACY-1035],RFU TMPRSS4 (11748680_a_at),52.95 RFU

# Reference: PMC5218480 (PLoS ONE, 2017)
